Data published in the supplement of paper PMC6045584.
± gives the standard deviation of the averaged measurements.

Legend:
[1] = compound: CC(=O)c1c(C)c2cnc(Nc3ccc(N4CCNCC4)cn3)nc2n(C2CCCC2)c1=O; assay: surviving fraction relative to DMSO-only wells; higher = less growth inhibition; conditions: exposure time: 5 days
Summary of the method: (§1)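 A line counted only if its three screens reached replicate Pearson r >0.7 and median Z' >0.3. Tumour cells in log phase were seeded at 250–500 per well in 384-well plates and, after 24 hours, kept in continuous contact with inhibitors at 0.5, 1, 5, 10, 50, 100, 500 and 1000 nM for five days. Surviving fraction was taken from CellTiter-Glo luminescence relative to the median of DMSO-only wells.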

OSI-906 = compound: C[C@]1(O)C[C@@H](c2nc(-c3ccc4ccc(-c5ccccc5)nc4c3)c3c(N)nccn32)C1 [OSI-906]; assay: as above; conditions: exposure time: 5 days
Summary of the method: as §1

Test System | surviving fraction ([1]; 0.5 nM) | surviving fraction ([1]; 1 nM) | surviving fraction ([1]; 5 nM) | surviving fraction ([1]; 10 nM) | surviving fraction ([1]; 50 nM) | surviving fraction ([1]; 100 nM) | surviving fraction ([1]; 500 nM) | surviving fraction ([1]; 1000 nM) | surviving fraction (OSI-906; 0.5 nM) | surviving fraction (OSI-906; 1 nM) | surviving fraction (OSI-906; 5 nM) | surviving fraction (OSI-906; 10 nM) | surviving fraction (OSI-906; 50 nM) | surviving fraction (OSI-906; 100 nM) | surviving fraction (OSI-906; 500 nM) | surviving fraction (OSI-906; 1000 nM)
HCC38 BREAST | 1.11 ± 0.12 | 1.22 ± 0.16 | 1.23 ± 0.036 | 1.19 ± 0.14 | 1.21 ± 0.15 | 1.09 ± 0.096 | 1.28 ± 0.12 | 1.24 ± 0.11 | 0.958 ± 0.13 | 0.883 ± 0.083 | 1.06 ± 0.09 | 0.902 ± 0.12 | 1.1 ± 0.19 | 1.12 ± 0.019 | 1.16 ± 0.14 | 1.07 ± 0.24
SAOS2 BONE | 1.07 ± 0.062 | 1.06 ± 0.034 | 1.13 ± 0.051 | 1.09 ± 0.037 | 1.1287 ± 0.00058 | 1.138 ± 0.0069 | 1.13 ± 0.065 | 1.07 ± 0.013 | 0.82 ± 0.027 | 0.858 ± 0.013 | 0.804 ± 0.085 | 0.838 ± 0.045 | 1.06 ± 0.018 | 0.877 ± 0.066 | 0.594 ± 0.016 | 0.522 ± 0.057
HS578T BREAST | 0.985 ± 0.087 | 1.09 ± 0.068 | 1.02 ± 0.11 | 1.02 ± 0.048 | 1.11 ± 0.15 | 1.14 ± 0.19 | 0.949 ± 0.071 | 1.13 ± 0.082 | 0.846 ± 0.12 | 0.968 ± 0.16 | 0.865 ± 0.12 | 0.846 ± 0.049 | 1.09 ± 0.13 | 0.931 ± 0.19 | 1.07 ± 0.073 | 1.15 ± 0.18
MDAMB231 BREAST | 0.994 ± 0.01 | 1.03 ± 0.032 | 1.03 ± 0.014 | 1.01 ± 0.031 | 1.045 ± 0.0069 | 1.02 ± 0.021 | 0.905 ± 0.013 | 0.888 ± 0.023 | 0.917 ± 0.034 | 0.9167 ± 0.0045 | 0.937 ± 0.021 | 0.918 ± 0.03 | 0.957 ± 0.031 | 0.947 ± 0.013 | 0.922 ± 0.014 | 0.908 ± 0.032
SJSA1 BONE | 1 ± 0.037 | 1.01 ± 0.099 | 1.028 ± 0.0059 | 1.04 ± 0.049 | 1.08 ± 0.028 | 1.12 ± 0.013 | 0.922 ± 0.037 | 0.88 ± 0.036 | 1.23 ± 0.051 | 1.22 ± 0.075 | 1.17 ± 0.2 | 1.21 ± 0.11 | 0.917 ± 0.21 | 1.62 ± 0.052 | 0.785 ± 0.31 | 0.388 ± 0.031
T47D BREAST | 1.05 ± 0.019 | 1.039 ± 0.0056 | 1.09 ± 0.022 | 1.06 ± 0.022 | 1.17 ± 0.014 | 1.08 ± 0.045 | 1.16 ± 0.042 | 1.11 ± 0.028 | 0.9222 ± 0.0086 | 0.933 ± 0.038 | 0.9888 ± 0.0092 | 0.917 ± 0.02 | 0.982 ± 0.058 | 0.954 ± 0.028 | 0.868 ± 0.018 | 0.85 ± 0.018
HCC1806 BREAST | 0.984 ± 0.095 | 0.999 ± 0.085 | 1.05 ± 0.046 | 1.08 ± 0.17 | 1.12 ± 0.1 | 1.09 ± 0.024 | 0.941 ± 0.17 | 0.95 ± 0.072 | 0.722 ± 0.032 | 0.721 ± 0.093 | 0.783 ± 0.11 | 0.822 ± 0.03 | 0.962 ± 0.077 | 1.07 ± 0.064 | 0.883 ± 0.04 | 0.826 ± 0.036
NOS1 BONE | 0.935 ± 0.071 | 0.997 ± 0.15 | 1.17 ± 0.086 | 0.969 ± 0.053 | 1.07 ± 0.055 | 1.11 ± 0.034 | 1.09 ± 0.11 | 1.09 ± 0.061 | 0.916 ± 0.13 | 0.944 ± 0.062 | 1.16 ± 0.49 | 1 ± 0.15 | 1 ± 0.059 | 0.884 ± 0.057 | 0.465 ± 0.028 | 0.462 ± 0.029
SCC36 HEADNECK | 1.02 ± 0.1 | 1.01 ± 0.015 | 1.17 ± 0.064 | 1.11 ± 0.056 | 1.1 ± 0.084 | 1.07 ± 0.025 | 0.923 ± 0.094 | 0.897 ± 0.025 | 0.783 ± 0.039 | 0.816 ± 0.062 | 0.796 ± 0.083 | 0.805 ± 0.055 | 0.742 ± 0.076 | 0.834 ± 0.066 | 0.64 ± 0.19 | 0.57 ± 0.046
SUM44 BREAST | 0.984 ± 0.044 | 1.01 ± 0.028 | 1.03 ± 0.062 | 0.956 ± 0.044 | 1.08 ± 0.1 | 1.05 ± 0.043 | 1.08 ± 0.068 | 1.086 ± 0.0082 | 0.844 ± 0.044 | 0.878 ± 0.1 | 0.948 ± 0.047 | 0.8813 ± 0.0072 | 1.01 ± 0.17 | 0.965 ± 0.14 | 0.887 ± 0.18 | 0.862 ± 0.13
OSHN BONE | 1.091 ± 0.005 | 1.073 ± 0.0079 | 1.09 ± 0.022 | 1.07 ± 0.018 | 1.12 ± 0.037 | 1.1 ± 0.018 | 1.13 ± 0.02 | 1.08 ± 0.032 | 0.887 ± 0.024 | 0.912 ± 0.026 | 0.902 ± 0.028 | 0.884 ± 0.046 | 0.945 ± 0.0072 | 0.927 ± 0.013 | 0.758 ± 0.012 | 0.732 ± 0.027
S68 BREAST | 0.75 ± 0.08 | 0.809 ± 0.025 | 1.13 ± 0.062 | 1.18 ± 0.033 | 1.01 ± 0.091 | 1.19 ± 0.2 | 0.744 ± 0.043 | 0.79 ± 0.29 | 0.611 ± 0.24 | 0.727 ± 0.17 | 0.797 ± 0.27 | 0.721 ± 0.37 | 1.19 ± 0.28 | 1.06 ± 0.21 | 0.828 ± 0.19 | 0.756 ± 0.05
HELA CERVIX | 1.03 ± 0.037 | 0.986 ± 0.016 | 1.01 ± 0.046 | 0.959 ± 0.04 | 1.14 ± 0.072 | 1.15 ± 0.034 | 1.16 ± 0.021 | 1.04 ± 0.039 | 0.971 ± 0.033 | 0.981 ± 0.054 | 0.955 ± 0.069 | 0.88 ± 0.09 | 1.03 ± 0.035 | 1.07 ± 0.036 | 1 ± 0.081 | 1.01 ± 0.048
